# Source: the supplement of paper PMC4862054
# How the values were obtained:
# Conditions in all cases: incubation time: 72 h
# [1] = tested on: CAL-148; assay: normalised response (% of control), CellTox Green; higher = less cell death (100 = DMSO, 0 = benzethonium chloride kill control)
# Summary of the method: (§1)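 Plates were normalised with 0.1 % DMSO as 100 and a positive kill control as 0. Breast cancer cell lines in 20 µl suspension had been seeded into 384-well plates with compound at 5 concentrations in 10-fold steps over a compound-specific 10,000-fold range, incubated 72 h, and read for CellTox Green fluorescence (485/520 nm) followed by CellTiter-Glo luminescence. Each value is the normalised signal at a single concentration.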
# [2] = tested on: BT-474; assay: as above
# Summary of the method: as §1
# [3] = tested on: HCC1599; assay: as above
# Summary of the method: as §1
# [4] = tested on: CAL-120; assay: as above
# Summary of the method: as §1
# [5] = tested on: HCC1937; assay: as above
# Summary of the method: as §1
# [6] = tested on: HCC1143; assay: as above
# Summary of the method: as §1
# [7] = tested on: MDA-MB-453; assay: as above
# Summary of the method: as §1
# [8] = tested on: MDA-MB-436; assay: as above
# Summary of the method: as §1
# [9] = tested on: CAL-51; assay: as above
# Summary of the method: as §1
# [10] = tested on: HDQ-P1; assay: as above
# Summary of the method: as §1
# [11] = tested on: MFM-223; assay: as above
# Summary of the method: as §1
# [12] = tested on: MCF-10A; assay: as above
# Summary of the method: as §1
# [13] = tested on: BT-549; assay: as above
# Summary of the method: as §1
# [14] = tested on: DU-4475; assay: as above
# Summary of the method: as §1
# [15] = tested on: MDA-MB-468; assay: as above
# Summary of the method: as §1
# [16] = tested on: Hs578T; assay: as above
# Summary of the method: as §1
# [17] = tested on: CAL-85-1; assay: as above
# Summary of the method: as §1
# [18] = tested on: MDA-MB-231; assay: as above
# Summary of the method: as §1
# [19] = tested on: CAL-148; assay: normalised response (% of control), CellTiter-Glo; higher = more viable cells (100 = DMSO, 0 = benzethonium chloride kill control)
# Summary of the method: as §1
# [20] = tested on: BT-474; assay: as above
# Summary of the method: as §1
# [21] = tested on: SK-BR-3; assay: as above
# Summary of the method: as §1
# [22] = tested on: HCC1599; assay: as above
# Summary of the method: as §1
# [23] = tested on: CAL-120; assay: as above
# Summary of the method: as §1
# [24] = tested on: HCC1937; assay: as above
# Summary of the method: as §1
# [25] = tested on: HCC1143; assay: as above
# Summary of the method: as §1
# [26] = tested on: MDA-MB-453; assay: as above
# Summary of the method: as §1
# [27] = tested on: MDA-MB-436; assay: as above
# Summary of the method: as §1
# [28] = tested on: CAL-51; assay: as above
# Summary of the method: as §1
# [29] = tested on: HDQ-P1; assay: as above
# Summary of the method: as §1
# [30] = tested on: MFM-223; assay: as above
# Summary of the method: as §1
# [31] = tested on: MCF-10A; assay: as above
# Summary of the method: as §1
# [32] = tested on: BT-549; assay: as above
# Summary of the method: as §1
# [33] = tested on: DU-4475; assay: as above
# Summary of the method: as §1
# [34] = tested on: MDA-MB-468; assay: as above
# Summary of the method: as §1
# [35] = tested on: Hs578T; assay: as above
# Summary of the method: as §1
# [36] = tested on: CAL-85-1; assay: as above
# Summary of the method: as §1
# [37] = tested on: MDA-MB-231; assay: as above
# Summary of the method: as §1
# [38] = tested on: CAL-148; assay: normalised response (% of control), CellTiter-Glo; higher = more viable cells (100 = DMSO, 0 = benzethonium chloride kill control); remark: listed apart in the source
# Method: (§2)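 DSRT, 72 h incubation, CellTox Green / CellTiter-Glo readout. Signal is normalised to DMSO and benzethonium chloride controls. Value is the normalised response at dose 3.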
# [39] = tested on: BT-474; assay: as above; remark: listed apart in the source
# Method: as §2
# [40] = tested on: SK-BR-3; assay: as above; remark: listed apart in the source
# Method: as §2
# [41] = tested on: HCC1599; assay: as above; remark: listed apart in the source
# Method: as §2
# [42] = tested on: CAL-120; assay: as above; remark: listed apart in the source
# Method: as §2
# [43] = tested on: HCC1937; assay: as above; remark: listed apart in the source
# Method: as §2
# [44] = tested on: HCC1143; assay: as above; remark: listed apart in the source
# Method: as §2
# [45] = tested on: MDA-MB-453; assay: as above; remark: listed apart in the source
# Method: as §2
# [46] = tested on: MDA-MB-436; assay: as above; remark: listed apart in the source
# Method: as §2
# [47] = tested on: CAL-51; assay: as above; remark: listed apart in the source
# Method: as §2
# [48] = tested on: HDQ-P1; assay: as above; remark: listed apart in the source
# Method: as §2
# [49] = tested on: MFM-223; assay: as above; remark: listed apart in the source
# Method: as §2
# [50] = tested on: MCF-10A; assay: as above; remark: listed apart in the source
# Method: as §2
# [51] = tested on: BT-549; assay: as above; remark: listed apart in the source
# Method: as §2
# [52] = tested on: DU-4475; assay: as above; remark: listed apart in the source
# Method: as §2
# [53] = tested on: MDA-MB-468; assay: as above; remark: listed apart in the source
# Method: as §2
# [54] = tested on: Hs578T; assay: as above; remark: listed apart in the source
# Method: as §2
# [55] = tested on: CAL-85-1; assay: as above; remark: listed apart in the source
# Method: as §2
# [56] = tested on: MDA-MB-231; assay: as above; remark: listed apart in the source
# Method: as §2
Compound,normalised response [1] [%],normalised response [2] [%],normalised response [3] [%],normalised response [4] [%],normalised response [5] [%],normalised response [6] [%],normalised response [7] [%],normalised response [8] [%],normalised response [9] [%],normalised response [10] [%],normalised response [11] [%],normalised response [12] [%],normalised response [13] [%],normalised response [14] [%],normalised response [15] [%],normalised response [16] [%],normalised response [17] [%],normalised response [18] [%],normalised response [19] [%],normalised response [20] [%],other results
CN(C)C/C=C/C(=O)Nc1cc2c(Nc3ccc(F)c(Cl)c3)ncnc2cc1O[C@H]1CCOC1 [Afatinib] (100 nM),102,81.3,112,101,135,111,102,87,107,90.9,101,85.5,116,101,110,100,55.7,113,75.1,90.6,normalised response [21]: 27.5%; normalised response [22]: 94.1%; normalised response [23]: 92.9%; normalised response [24]: 89.8%; normalised response [25]: 100%; normalised response [26]: 77.3%; normalised response [27]: 98%; normalised response [28]: 118%; normalised response [29]: 64%; normalised response [30]: 106%; normalised response [31]: 32.4%; normalised response [32]: 98.5%; normalised response [33]: 98.1%; normalised response [34]: 87.2%; normalised response [35]: 108%; normalised response [36]: 65.9%; normalised response [37]: 103%
COc1cc(Nc2ncc3c(n2)-c2ccc(Cl)cc2C(c2c(F)cccc2OC)=NC3)ccc1C(=O)O [Alisertib] (1000 nM),53.8,96,96.6,96.9,122,85.8,110,73.5,17.4,78.2,89.1,108,76.9,92.2,8.1,96.3,93.3,69.1,62.6,70.9,normalised response [21]: 76%; normalised response [22]: 82.6%; normalised response [23]: 79.5%; normalised response [24]: 86.5%; normalised response [25]: 71.3%; normalised response [26]: 140%; normalised response [27]: 62%; normalised response [28]: 56.5%; normalised response [29]: 84.3%; normalised response [30]: 56.4%; normalised response [31]: 76.3%; normalised response [32]: 49.2%; normalised response [33]: 67.6%; normalised response [34]: 27.2%; normalised response [35]: 84.4%; normalised response [36]: 90.5%; normalised response [37]: 78%
CC(=O)O[C@]1(C(C)=O)CC[C@H]2[C@@H]3C=C(C)C4=CC(=O)CC[C@]4(C)[C@H]3CC[C@@]21C [Megestrol acetate] (1000 nM),104,97.6,96.8,101,58.1,116,105,57.4,115,106,101,103,108,99.1,141,98.8,104,110,92.4,111,normalised response [21]: 93.8%; normalised response [22]: 111%; normalised response [23]: 98.2%; normalised response [24]: 110%; normalised response [25]: 103%; normalised response [26]: 95.8%; normalised response [27]: 101%; normalised response [28]: 124%; normalised response [29]: 104%; normalised response [30]: 96.6%; normalised response [31]: 121%; normalised response [32]: 109%; normalised response [33]: 102%; normalised response [34]: 95.4%; normalised response [35]: 105%; normalised response [36]: 100%; normalised response [37]: 118%
CCN1CCN(c2ccc(Nc3cc(N(C)C(=O)Nc4c(Cl)c(OC)cc(OC)c4Cl)ncn3)cc2)CC1 [NVP-BGJ398] (100 nM),104,98.1,95.3,90.8,112,111,103,99.7,111,73,95.7,101,99.1,99.3,89.7,91,108,104,92.6,94.5,normalised response [21]: 97.5%; normalised response [22]: 102%; normalised response [23]: 84.7%; normalised response [24]: 98.8%; normalised response [25]: 97.7%; normalised response [26]: 104%; normalised response [27]: 93.4%; normalised response [28]: 112%; normalised response [29]: 101%; normalised response [30]: 63.3%; normalised response [31]: 103%; normalised response [32]: 94.3%; normalised response [33]: 101%; normalised response [34]: 97.1%; normalised response [35]: 95.8%; normalised response [36]: 97.3%; normalised response [37]: 96.1%
O=C(c1ccc(C(=O)N2CCC(N3CCCC3)CC2)c(Nc2ccccc2)c1)N1CCC(N2CCCC2)CC1 [UNC1215] (300 nM),104,101,93.7,101,85.9,93.9,100,65.3,77.2,,,86.4,94.4,101,129,,98.7,90.9,,,normalised response [38]: 93.6%; normalised response [39]: 98.3%; normalised response [40]: 94%; normalised response [41]: 93.2%; normalised response [42]: 96.7%; normalised response [43]: 92.7%; normalised response [44]: 95%; normalised response [45]: 104%; normalised response [46]: 99.7%; normalised response [47]: 62.6%; normalised response [48]: 97.6%; normalised response [49]: 97.7%; normalised response [50]: 94.5%; normalised response [51]: 96.7%; normalised response [52]: 99.5%; normalised response [53]: 90%; normalised response [54]: 98%; normalised response [55]: 99.5%; normalised response [56]: 99.1%
